Experimental data from US20140037742A1, “ALGINATE MICROPARTICLES AND METHODS OF USING THE SAME” (priority 2012, published 2014).

System: Staphylococcus epidermidis
Test: Antimicrobial testing, zones of inhibition around saturated discs on agar plates
Assay type: cell-based
Details: positive control disc, all test plates
Protocol: Each disc was saturated with different test materials and zones of inhibition were measured after plates were incubated for 24 and 48 hours.
The synthesized microparticles were also tested for their antimicrobial activity against Staphylococcus epidermidis, a substitute for the pathogenic Staphylococcus aureus.

[H]/N=C(/N)N[C@H]1[C@H](O)[C@@H](O)[C@H](O[C@@H]2O[C@@H](C)[C@](O)(C=O)[C@H]2O[C@@H]2O[C@@H](CO)[C@H](O)[C@@H](O)[C@@H]2NC)[C@@H](N/C(N)=N\[H])[C@@H]1O [Streptomycin]
zone of inhibition: large, consistent zone of inhibition
